What was measured:
anaesthetised rats = assay: Effects on rhythmic bladder-voiding contractions induced by bladder filling in anaesthetised rats; type: in vivo, rat; settings: intravenous administration, urethane-anaesthetised rats
Description: Female Sprague-Dawley rats weighing 225-275 g (Crl: CDo Br, Charles River Italia) were used. The animals were housed with free access to food and water and maintained on a forced 12-hour alternating light-dark cycle at 22-24° C. for at least one week, except during the experiment. The activity on rhythmic bladder voiding contractions was evaluated according to the method of Dray (Dray J., Pharmacol. Methods, 13:157, 1985), with some modifications as in Guarneri (Guarneri, Pharmacol. Res. 27:173, 1993). Briefly, the rats were anaesthetised by subcutaneous injection of 1.25 g/kg (5 ml/kg) urethane, after which the urinary bladder was catheterised via the urethra using PE 50 polyethylene tubing filled with physiological saline. The catheter was tied in place with a ligature around the external urethral orifice and was connected to conventional pressure transducers (Statham P23 ID/P23 XL). […] The bladder was then filled via the recording catheter by incremental volumes of warm (37° C.) saline until reflex bladder-voiding contractions occurred (usually 0.8-1.5 ml). For intravenous injection of bioactive compounds, PE 50 polyethylene tubing filled with physiological saline was inserted into the jugular vein.
From the cystometrogram, the number of contractions recorded 15 minutes before (basal values) and after treatment, as well as the mean amplitude of these contractions (mean height of the peaks in mmHg), was evaluated.
Since most compounds produced an effect that was relatively rapid in onset and led to a complete cessation of bladder contractions, bioactivity was conveniently estimated by measuring the duration of bladder quiescence (i.e. the length of the time during which no contractions occurred). The number of tested animals showing a reduction in the number of contractions higher than 30% of that observed in the basal period was recorded too.
The extrapolated doses which induced a reduction in the number of contractions greater than 30% in 50% of the treated rats (ED50) were evaluated by the method of Bliss (Bliss C. I., Quart J. Pharm. Pharmacol. 11, 192-216, 1938).

conscious rats = assay: Effect on cystometric parameters in conscious rats after oral administration; type: in vivo, rat; settings: 3 mg/kg p.o., 1-5 h after treatment, versus vehicle
Description: Male Sprague-Dawley rats [Crl: CD° (SD) BR] of 300-400 g supplied by Charles River Italia were used. The animals were housed with free access to food and water and maintained on a forced 12-hour-light/12-hour-dark cycle at 22-24° C. of temperature, except during the experiment. To quantify urodynamic parameters in conscious rats, cystometrographic studies were performed according to the procedure previously reported (Guarneri et al., Pharmacol. Res. 24: 175, 1991).
Briefly, the rats were anaesthetised by intraperitoneal administration of 3 ml/kg of Equithensin solution (pentobarbital 30 mg/kg and chloral hydrate 125 mg/kg) and placed in a supine position. An approximately-10-mm-long midline incision was made in the shaved and cleaned abdominal wall. The urinary bladder was gently freed from adhering tissues, emptied and then cannulated via an incision in the bladder body, using a polyethylene cannula (0.58-mm internal diameter, 0.96-mm external diameter) which was permanently sutured with silk thread. The cannula was exteriorised through a subcutaneous tunnel in the retroscapular area, where it was connected to a plastic adapter in order to avoid the risk of removal by the animal. For drug testing, the rats were utilised one day after implantation.
On the day of the experiment, the rats were placed in modified Bollman cages, i.e. restraining cages that were large enough to permit the rats to adopt a normal crouched posture, but narrow enough to prevent turning around. […] The intraluminal-pressure signal during infusion of saline into the bladder was continuously recorded on a polygraph (Rectigraph-8K San-ei with BM614/2 amplifier from Biomedica Mangoni) and, from the cystometrogram, two urodynamic parameters were evaluated: bladder volume capacity (BVC) and micturition pressure (MP). […] Basal BVC and MP values were evaluated as mean of the values observed in the cystometrograms recorded in an initial period of 30-60 minutes. […] The bladder infusion restarted and changes in BVC and MP were evaluated from the mean values obtained in the cystometrograms observed during 1, 2, 3, 4 and 5 hours after treatment. […]
All data were expressed as mean±standard error. Time-course data were analysed by S.A.S./STAT software, version 6.12. The difference between vehicle and active-treatment effect was evaluated by: General Linear Model Procedure—Repeated Measures Analysis of Variance: Univariate test of Hypotheses for within Subject Effects—Analysis of Variance of Contrast Variables. […]

## O=C(C1CCCCC1)N1c2ccccc2CCC1CN1CCN(c2cccc3[nH]ccc23)CC1 (racemic) [Example 1, (±)1-(1-cyclohexanecarbonyl-1,2,3,4-tetrahydroquinoline-2-ylmethyl)-4-(4-indolyl)piperazine]
Anaesthetised rats; Rattus norvegicus, read-out: ED50 frequency (extrapolated dose inducing a reduction of the number of contractions >30% in 50% of treated rats)
  ED50: 0.064 mg/kg
Anaesthetised rats
  ED10 min (extrapolated dose inducing 10 minutes of disappearance of the contractions): 0.107 mg/kg
Conscious rats
  effect on bladder volume capacity (BVC): effective in increasing the bladder volume capacity
  effect on micturition pressure (MP): without significant effects

Source: patent US20030162777A1, “Novel N-acylated heterocycles” (Recordati S.A., priority 2001, published 2003)
